These results are taken from patent publication US8324395B2, “Heterocyclic compound and use thereof” (Takeda Pharmaceutical Company Limited, priority 2007, dated 2012).

The structures appear in SMILES notation.

The first experiment has as its system human colon cancer cell HT-29. Nature of the experiment: Colon cancer cell HT-29 growth suppressive action in vitro. Format: cell-based. The conditions noted are these: 72 h, HT-29 cells, 3 days culture, SRB staining of cell protein. As to the method: A cell suspension (100 μL, 3,000 cells/well) of human colon cancer cell HT-29 (purchased from ATCC) was plated in a 96-well plate, and the cells were cultured at 37° C. in a 5% carbon dioxide gas incubator. The next day, 2-fold serial dilution of each test compound solution (diluted from maximum concentration 20 μM) (100 μL) was added, and the cells were cultured for 3 days. The culture medium containing the test compound was removed, and the cells were washed with phosphate buffer (PBS). A 50% trichloroacetic acid solution was added to the final concentration of 10% (v/v), and the mixture was stood overnight at 4° C., whereby the cells were fixed to the plate. Then, a dye SRB 0.4% (w/v) solution (dissolved in 1% acetic acid) was added at 50 μl/well, whereby the cell protein was fixed and stained (Skehan et al., Journal Of National Cancer Institute, vol. 82, pp. 1107-1112, 1990). The cells were washed 3 times with 1% acetic acid solution (200 μL/well), and 100 μL of an extract (10 mM Tris buffer) was added to extract the dye. The absorbance at an absorption wavelength […] was measured, and cell amount was measured as a protein amount. Taking the protein amount of the control group free of the test compound solution as 100%, the proportion of the residual protein amount of each treatment group was determined and the concentration of the compound necessary for suppressing the residual cell amount to 50% of the control (IC50 value) was calculated.
As for `CC(C)(C#N)c1cccc(C(=O)Nc2cccc(Oc3ccc4nc(NC(=O)C5CC5)sc4c3)c2)c1` [Example A12, 3-(1-cyano-1-methylethyl)-N-[3-({2-[(cyclopropylcarbonyl)amino]-1,3-benzothiazol-6-yl}oxy)phenyl]benzamide], the 50% inhibitory concentration (IC50) (in general, the concentration that inhibits the measured activity by half) was less than 500 nM.

Turning to `COc1ccc(NC(=O)c2cccc(C(C)(C)C#N)c2)cc1Oc1ccc2nc(NC(=O)CN3CCN(C)CC3)sc2c1` [Example A23, 3-(1-cyano-1-methylethyl)-N-{4-methoxy-3-[(2-{[(4-methylpiperazin-1-yl)acetyl]amino}-1,3-benzothiazol-6-yl)oxy]phenyl}benzamide], the IC50 was less than 500 nM.

Regarding `CC(=O)Nc1nc2ccc(Oc3cc(NC(=O)c4cccc(C(C)(C)C#N)c4Cl)ccc3F)cc2s1` [Example A47, N-(3-{[2-(acetylamino)-1,3-benzothiazol-6-yl]oxy}-4-fluorophenyl)-2-chloro-3-(1-cyano-1-methylethyl)benzamide], the IC50 was less than 500 nM.

For `CC(=O)Nc1nc2ccc(Oc3cccc(NC(=O)c4cccc(C(C)(C)C#N)c4Cl)c3)cc2s1` [Example A41, N-(3-{[2-(acetylamino)-1,3-benzothiazol-6-yl]oxy}phenyl)-2-chloro-3-(1-cyano-1-methylethyl)benzamide], the IC50 was less than 500 nM.

Regarding `CN1CCN(CC(=O)Nc2nc3ccc(Oc4cccc(NC(=O)c5cccc(C(C)(C)C#N)c5)c4)cc3s2)CC1` [Example A13, 3-(1-cyano-1-methylethyl)-N-{3-[(2-{[(4-methylpiperazin-1-yl)acetyl]amino}-1,3-benzothiazol-6-yl)oxy]phenyl}benzamide], the IC50 was less than 500 nM.

The target in a further experiment is T1, BRAF (V600E) kinase (Homo sapiens, UniProt P15056, V600E).
T1 construct: Flag (N); made in house; host or cells: SF-21 insect cells, recombinant baculovirus BAC-V600E
T1 sequence (P15056 457-717 V600E limits assumed): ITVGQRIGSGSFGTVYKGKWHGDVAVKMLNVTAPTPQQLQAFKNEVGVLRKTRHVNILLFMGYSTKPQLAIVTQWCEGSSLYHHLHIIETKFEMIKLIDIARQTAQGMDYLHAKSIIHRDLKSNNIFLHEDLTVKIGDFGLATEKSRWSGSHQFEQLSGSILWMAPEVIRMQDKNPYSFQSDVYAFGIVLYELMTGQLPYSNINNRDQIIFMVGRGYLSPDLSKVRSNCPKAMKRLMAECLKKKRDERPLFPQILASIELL
Nature of the experiment: Determination of BRAF (V600E) kinase inhibitory activity. Format: biochemical. The conditions noted are these: 1.0 μM test compound; BRAF (V600E) enzyme, GST-MEK1 (K96R) substrate, [γ-32P]ATP; read-out: Inhibitory rate (%) at 1.0 μM. As to the method:
Human BRAF gene was cloned by PCR using human Testis cDNA library (Clontech) as a template. The primer used for PCR was prepared from base sequence (Genbank Accession No.: NM_004333) information of BRAF gene by adding a base sequence encoding flag peptide and a recognition sequence of the restriction enzyme to area encoding the BRAF kinase domain region, so that the protein contains an N-terminal. Flag. The primer base sequence is shown below.
The PCR reaction was conducted using Pyrobest (Takara Shuzo Co., Ltd). The obtained PCR product was electrophoresed on agarose gel (1%), the DNA fragment amplified by PCR was recovered from the gel, and then digested with restriction enzymes EcoRI and SalI. The DNA treated with the restriction enzymes was electrophoresed on agarose gel (1%), and the obtained DNA fragment was recovered. The recovered DNA fragment was ligated to plasmid pFASTBAC1 (Invitrogen) digested with restriction enzymes EcoRI and SalI to give expression plasmid pFB-BRAF, and the base sequence of the insert fragment was confirmed. In addition, mutation was introduced into V600E using a Quick change Site Directed Mutagenesis kit (Stratagene). The base sequences of the primers used are shown in the following.
The obtained plasmid was sequenced to confirm the introduction of mutation into V600E. The DNA was digested with restriction enzymes EcoRI and SalI, DNA treated with the restriction enzymes was electrophoresed on agarose gel (1%), and the obtained DNA fragment was recovered. The recovered DNA fragment was ligated to plasmid pFASTBAC1 (Invitrogen) digested with restriction enzymes EcoRI and SalI to give expression plasmid pFB-V600E.
Using BAC-TO-BAC Baculovirus Expression System (Invitrogen), virus stock BAC-V600E of recombinant baculovirus was prepared.
SF-21 cells were sown at 1×10^6 cells/mL to Sf-900II SFM medium (1 L, Invitrogen) containing 10% fetal bovine serum (Trace), 50 mg/L Gentamicin (Invitrogen) and 0.1% Pluronic F-68 (Invitrogen), and shaking culture was performed using a 2 L volume Erlenmeyer flask at 27° C., 100 rpm. After culturing for 24 hr, recombinant baculovirus BAC-V600E (13.4 mL) was added to the mixture, and the mixture was further cultured for 3 days. The culture medium was centrifuged at 2,000 rpm for 5 min to give virus-infected cells. The infected cells were washed with a phosphate buffered saline (Invitrogen), centrifuged under the same conditions, and the cells were preserved at −80° C. The cryopreserved cells were thawed in ice, suspended in buffer A (50 mM Tris buffer (30 mL, pH 7.4) containing 20% glycerol, 0.15 M NaCl) supplemented with Complete Protease Inhibitor (Boehringer), and ruptured 3 times with a Polytron homogenizer (Kinematica) at 20,000 rpm for 30 sec. The ruptured medium was clarified by centrifugation at 40,000 rpm for 30 min and filtered with a 0.45 μm filter. The filtrate was passed through a column packed with Anti-FLAG M2 Affinity Gel (4 mL, Sigma) at a flow rate of about 0.5 mL/min. The column was washed with buffer A, and eluted with buffer A containing 100 μg/mL of FLAG peptide. The buffer of this eluate was exchanged using NAP25 column (Amersham Bioscience) equilibrated with buffer A and the fractions were cryopreserved at −80° C.
A test compound (2.5 μL) dissolved in dimethyl sulfoxide (DMSO) was added to 37.5 μL of a reaction mixture (25 mM HEPES (pH 7.5), 10 mM magnesium acetate, 1 mM dithiothreitol) containing BRAF (V600E) enzyme (30 ng) and recombinant type protein GST-MEK1 (K96R) 250 ng, and the mixture was incubated at room temperature for 10 min. ATP solution (10 μL, 2.5 μM ATP, 0.1 μCi [γ-^32P]ATP) was added to the obtained mixture, and the mixture was reacted at room temperature for 20 min. The reaction was quenched by adding 50 μL of ice-cooled. 20% trichloroacetic acid (Wako Pure Chemical Industries, Ltd.) to the reaction mixture. […]
Consider `CC(C)(C#N)c1cccc(C(=O)Nc2cccc(Oc3ccc4nc(NC(=O)C5CC5)sc4c3)c2)c1` [Example A12, 3-(1-cyano-1-methylethyl)-N-[3-({2-[(cyclopropylcarbonyl)amino]-1,3-benzothiazol-6-yl}oxy)phenyl]benzamide], for which the inhibition at 1 µM amounted to 100%.
